These results are taken from patent publication US5128447A, “Synthetic peptide antagonists of neurokinin A, salts thereof and respective preparation processes” (A. Menarini Industrie Farmaceutiche Riunite S.r.l., priority 1989, dated 1992).

Non-standard residues stand in square brackets, D forms with d. Residues, ends and D or L forms follow the SMILES beside them.

For the assay, the target named is T1, neurokinin A receptor (NK-2 receptor) (Rattus norvegicus, UniProt P16610).
T1 sequence (P16610 1-390): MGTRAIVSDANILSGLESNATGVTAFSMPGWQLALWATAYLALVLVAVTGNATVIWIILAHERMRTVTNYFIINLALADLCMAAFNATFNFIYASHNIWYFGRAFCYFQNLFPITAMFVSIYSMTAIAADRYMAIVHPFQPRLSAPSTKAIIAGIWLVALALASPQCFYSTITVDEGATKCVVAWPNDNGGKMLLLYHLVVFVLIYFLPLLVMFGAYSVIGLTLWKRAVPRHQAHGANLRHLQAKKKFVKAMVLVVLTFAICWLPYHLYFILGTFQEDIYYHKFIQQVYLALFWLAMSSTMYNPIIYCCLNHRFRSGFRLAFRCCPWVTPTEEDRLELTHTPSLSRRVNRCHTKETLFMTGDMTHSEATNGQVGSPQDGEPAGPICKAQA
Put plainly: cell-based. Here is the method:
The capacity of the peptides described in the present invention of interacting with the neurokinin A receptor as agonists or antagonists was evaluated by means of an in vitro assay using a preparation, in which the biological response produced by tachykinin and related peptides is exclusively determined by the neuro-kinin A receptor (NK-2 receptor). Such a preparation is the isolated vas deferens of rats, where the tachykinins produce a potentiation of the contractions caused by the intramural nerves following an electrical stimulation. The determination of the activity of the peptides in this preparation was carried out as described by Rovero et al. (Neuropeptides 10, 355, 1987). The agonistic activity of the peptides assayed is expressed as pD2, which represents the […] of the molar concentration of agonist which produces 50% of the maximum effect. […] The pD2 were calculated according to Van Rossum (Arch. Int. Pharmacodyn. 143, 249, 1963), and the pA 2 were calculated from the analysis of the Schild plot (O. Arunlakshana and H. O. Schild, Br. J. Pharmacol., 14, 48, 1959).
The agonists produce a potentiation of the contractions caused by the nerve of the isolated vas deferens of rats. The antagonistic activity is evaluated as the capacity of the product to produce a parallel displacement towards the right of the concentration/response curve of neurokinin A after a contact time of 15 minutes.

One may read the EC50 as the concentration at which the effect is half-maximal. `CSCC[C@H](NC(=O)[C@H](CC(C)C)NC(=O)CNC(=O)[C@@H](NC(=O)[C@H](Cc1ccccc1)NC(=O)[C@H](CO)NC(=O)[C@@H](N)CC(=O)O)C(C)C)C(N)=O` [NKA(4-10), reference compound]: the EC50 was 1050 nM.

With `CC(C)[C@H](NC(=O)[C@@H](Cc1c[nH]c2ccccc12)NC(=O)[C@H](Cc1ccc(O)cc1)NC(=O)[C@H](CC(=O)O)NC(=O)[C@@H](N)CCCCN)C(=O)N[C@H](Cc1c[nH]c2ccccc12)C(=O)N[C@H](Cc1c[nH]c2ccccc12)C(=O)N[C@@H](CCCNC(=N)N)C(N)=O` [H--Lys--Asp--Tyr--DTrp--Val--DTrp--DTrp--Arg--NH2] (H-KDY[dW]V[dW][dW]R-NH2), the Kb was 339 nM. Take `CC(C)[C@H](NC(=O)[C@@H](Cc1c[nH]c2ccccc12)NC(=O)[C@H](Cc1ccc(O)cc1)NC(=O)[C@@H](N)CC(=O)O)C(=O)N[C@H](Cc1c[nH]c2ccccc12)C(=O)N[C@H](Cc1c[nH]c2ccccc12)C(=O)N[C@@H](Cc1ccc(O)cc1)C(N)=O` [H--Asp--Tyr--DTrp--Val--DTrp--DTrp--Tyr--NH2] (H-DY[dW]V[dW][dW]Y-NH2): the Kb was 191 nM. The same measure, in the same setting: then `CC(C)[C@H](NC(=O)[C@@H](Cc1c[nH]c2ccccc12)NC(=O)[C@H](Cc1ccc(O)cc1)NC(=O)[C@@H](N)CC(=O)O)C(=O)N[C@H](Cc1c[nH]c2ccccc12)C(=O)N[C@H](Cc1c[nH]c2ccccc12)C(=O)N[C@H](Cc1c[nH]c2ccccc12)C(N)=O` [H-Asp-Tyr-DTrp-Val-DTrp-DTrp-DTrp-NH2] (H-DY[dW]V[dW][dW][dW]-NH2), with 155 nM. Still for that read-out and setting: for `CSCC[C@H](NC(=O)[C@@H](Cc1c[nH]c2ccccc12)NC(=O)[C@@H](Cc1c[nH]c2ccccc12)NC(=O)[C@@H](NC(=O)[C@@H](Cc1c[nH]c2ccccc12)NC(=O)[C@H](Cc1ccc(O)cc1)NC(=O)[C@H](CC(=O)O)NC(=O)[C@@H](N)CCCNC(=N)N)C(C)C)C(N)=O` [H--Arg--Asp--Tyr--DTrp--Val--DTrp--DTrp--Met--NH2] (H-RDY[dW]V[dW][dW]M-NH2) the value was 251 nM. Same read-out and setting: for `CC(C)[C@H](NC(=O)[C@@H](Cc1c[nH]c2ccccc12)NC(=O)[C@H](Cc1ccc(O)cc1)NC(=O)[C@H](CC(=O)O)NC(=O)[C@@H](N)CCCNC(=N)N)C(=O)N[C@H](Cc1c[nH]c2ccccc12)C(=O)N[C@H](Cc1c[nH]c2ccccc12)C(=O)N[C@@H](CCCNC(=N)N)C(N)=O` [H-Arg-Asp-Tyr-DTrp-Val-DTrp-DTrp-Arg-NH2] (H-RDY[dW]V[dW][dW]R-NH2) the value was 316 nM; for `CC(C)[C@H](NC(=O)[C@@H](Cc1c[nH]c2ccccc12)NC(=O)[C@H](Cc1ccc(O)cc1)NC(=O)[C@H](CC(=O)O)NC(=O)[C@@H](N)CCCNC(=N)N)C(=O)N[C@H](Cc1c[nH]c2ccccc12)C(=O)N[C@H](Cc1c[nH]c2ccccc12)C(=O)N[C@@H](Cc1ccccc1)C(N)=O` [H--Arg--Asp--Tyr--DTrp--Val--DTrp--DTrp--Phe--NH2] (H-RDY[dW]V[dW][dW]F-NH2), 575 nM; for `CC(C)[C@H](NC(=O)[C@@H](Cc1c[nH]c2ccccc12)NC(=O)[C@H](Cc1ccc(O)cc1)NC(=O)[C@H](CC(=O)O)NC(=O)[C@@H](N)[C@@H](C)O)C(=O)N[C@H](Cc1c[nH]c2ccccc12)C(=O)N[C@H](Cc1c[nH]c2ccccc12)C(=O)N[C@@H](CCCNC(=N)N)C(N)=O` [H--Thr--Asp--Tyr--DTrp--Val--DTrp--DTrp--Arg--NH2] (H-TDY[dW]V[dW][dW]R-NH2), 251 nM. Regarding `CC(C)[C@H](NC(=O)[C@@H](Cc1c[nH]c2ccccc12)NC(=O)[C@H](Cc1ccc(O)cc1)NC(=O)[C@@H](N)CC(=O)O)C(=O)N[C@H](Cc1c[nH]c2ccccc12)C(=O)N[C@H](Cc1c[nH]c2ccccc12)C(=O)N[C@@H](CCCNC(=N)N)C(N)=O` [H--Asp--Tyr--DTrp--Val--DTrp--DTrp--Arg--NH2] (H-DY[dW]V[dW][dW]R-NH2), the Kb was 251 nM.
